{
  "source": "ChEMBL document CHEMBL1201862",
  "about": "“PubChem BioAssay data set” (2004)",
  "key": {"Transthyretin": {"molecular_target": "Transthyretin (Homo sapiens, UniProt P02766)", "assay": "Luminescence-based cell-based high throughput dose response assay to identify activators of Transthyretin (TTR) transcription.", "format": "functional"}, "[1]": {"assay": "M. tuberculosis growth inhibition, HTS (AID 449762)", "format": "functional"}, "[2]": {"assay": "microbe, parasite or virus in culture", "format": "functional", "conditions": "Mycobacterium tuberculosis"}, "Genome polyprotein": {"molecular_target": "Genome polyprotein (Hepatitis C virus, UniProt Q2Q167)", "sequence (Q2Q167 whole entry)": "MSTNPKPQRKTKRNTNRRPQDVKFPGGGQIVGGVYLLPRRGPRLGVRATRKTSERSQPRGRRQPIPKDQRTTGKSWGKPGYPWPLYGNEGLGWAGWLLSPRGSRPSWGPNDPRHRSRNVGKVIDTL", "assay": "HCV core protein dimerization inhibitors, dose response, biochemical, TR-FRET (AID 2159);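 also: blocks dimerization of HCV core protein measured by TR-FRET between tagged core106 pairs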", "parameters": "species or system Hepacivirus hominis"}, "[3]": {"molecular_target": "T1, Tyrosine-protein phosphatase non-receptor type 7 (Homo sapiens, UniProt P35236)", "T1 sequence (P35236 whole entry)": "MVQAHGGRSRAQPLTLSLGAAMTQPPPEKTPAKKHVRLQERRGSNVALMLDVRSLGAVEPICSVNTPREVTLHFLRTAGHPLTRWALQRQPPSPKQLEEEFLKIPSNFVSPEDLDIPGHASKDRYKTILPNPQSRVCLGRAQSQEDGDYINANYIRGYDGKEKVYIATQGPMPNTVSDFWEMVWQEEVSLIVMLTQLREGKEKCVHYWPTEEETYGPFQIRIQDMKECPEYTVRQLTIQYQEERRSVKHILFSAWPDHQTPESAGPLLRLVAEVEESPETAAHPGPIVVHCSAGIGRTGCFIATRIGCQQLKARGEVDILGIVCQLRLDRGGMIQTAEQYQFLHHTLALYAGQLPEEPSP", "assay": "inhibitors of human HePTP phosphatase, […], biochemical, absorbance, leukemia target (AID 521)", "format": "functional"}, "[4]": {"molecular_target": "Glutathione-S-transferase (Schistosoma japonicum, UniProt Q26513)", "assay": "biotin-GST/anti-GST TR-FRET signal inhibitors, dose response, artefact control for Vif-APOBEC3G degradation inhibitor project, biochemical (AID 1117362)", "format": "functional"}, "[5]": {"molecular_target": "NAD-dependent protein deacylase sirtuin-5, mitochondrial (Homo sapiens, UniProt Q9NXA8)", "assay": "SIRT5 desuccinylase inhibitors, dose response, biochemical, fluorescence imaging, cherry-pick, set 5 (AID 720591);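 also: desuccinylation of succinyl peptide AMC substrate read as fluorescence after trypsin release; potency of inhibitors that lower fluorescence and may act on trypsin instead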"}, "[6]": {"assay": "Luminescent dose response cell-based high throughput screening assay for inhibitors of the Janus kinase 2 mutant JAK2V617F. [Related pubchem assays: 1446 (Primary screen.), 1521 (Confirmation assay.), 1486 (Counter screen.)]", "format": "functional"}, "INS1": {"test_system": "INS1", "assay": "beta cell apoptosis inhibitors, cytokine rescue, dose response, luminescence, retest (AID 449756);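 also: cell death triggered by IL-1 beta plus TNF-alpha plus IFN-gamma mixture; protective hits raise ATP signal compared with cytokine alone wells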", "format": "functional, cell-based", "conditions": "Rattus norvegicus"}, "Vero [7]": {"test_system": "Vero", "assay": "cells", "format": "functional, cell-based", "conditions": "Chlorocebus sabaeus"}, "Vero [8]": {"test_system": "Vero", "assay": "cells", "format": "functional", "conditions": "Chlorocebus sabaeus"}, "Paired box protein Pax-8": {"molecular_target": "Paired box protein Pax-8 (Homo sapiens, UniProt Q06710)", "sequence (Q06710 whole entry)": "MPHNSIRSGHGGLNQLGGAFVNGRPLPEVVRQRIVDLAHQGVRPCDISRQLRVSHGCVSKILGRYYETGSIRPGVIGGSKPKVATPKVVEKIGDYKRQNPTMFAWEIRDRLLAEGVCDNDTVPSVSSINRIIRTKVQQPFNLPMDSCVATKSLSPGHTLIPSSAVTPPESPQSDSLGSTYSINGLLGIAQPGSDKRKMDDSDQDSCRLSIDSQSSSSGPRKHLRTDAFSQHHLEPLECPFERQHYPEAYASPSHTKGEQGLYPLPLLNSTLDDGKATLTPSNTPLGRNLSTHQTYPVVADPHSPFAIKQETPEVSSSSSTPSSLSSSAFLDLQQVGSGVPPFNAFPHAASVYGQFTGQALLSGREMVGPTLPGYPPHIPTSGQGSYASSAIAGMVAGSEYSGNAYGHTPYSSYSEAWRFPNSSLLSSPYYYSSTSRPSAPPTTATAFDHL", "assay": "inhibitors of PAX8-driven TPO luciferase reporter, dose response, RMG-I cells, cherry-pick (AID 687027);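 also: luciferase reporter driven by Pax8 target thyroperoxidase promoter measured by SteadyGlo luminescence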", "format": "functional, cell-based"}, "[9]": {"assay": "PAX2 cell-based inhibition, dose response, selectivity assay for PAX8 inhibitor project, plate reader, dry powder samples (AID 743048);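 also: HEK293 cells carrying a WT1 promoter luciferase reporter driven by expressed Pax2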", "format": "functional"}, "[10]": {"assay": "PAX5 activity inhibitors, dose response, selectivity assay for PAX8 inhibitor project, cell-based, plate reader, dry powder samples (AID 743047);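 also: HEK293 cells carrying a Pax5 driven CD19 promoter luciferase reporter; potency of inhibitors that lower reporter luminescence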", "format": "functional"}, "[11]": {"assay": "cytotoxicity dependent on PAX8, dose response, cell-based, plate reader, dry powder (AID 743049)", "format": "functional"}, "[12]": {"molecular_target": "Sphingosine 1-phosphate receptor 2 (Homo sapiens, UniProt O95136)", "assay": "Dose Response Cell Based Assay for Agonists of the S1P2 Receptor. [Related pubchem assays: 729, 736, 843 ]", "format": "functional"}, "[13]": {"molecular_target": "Peroxisome proliferator-activated receptor gamma/Nuclear receptor corepressor 2 (Homo sapiens, UniProt P37231+Q9Y618)", "sequence (P37231 whole entry)": "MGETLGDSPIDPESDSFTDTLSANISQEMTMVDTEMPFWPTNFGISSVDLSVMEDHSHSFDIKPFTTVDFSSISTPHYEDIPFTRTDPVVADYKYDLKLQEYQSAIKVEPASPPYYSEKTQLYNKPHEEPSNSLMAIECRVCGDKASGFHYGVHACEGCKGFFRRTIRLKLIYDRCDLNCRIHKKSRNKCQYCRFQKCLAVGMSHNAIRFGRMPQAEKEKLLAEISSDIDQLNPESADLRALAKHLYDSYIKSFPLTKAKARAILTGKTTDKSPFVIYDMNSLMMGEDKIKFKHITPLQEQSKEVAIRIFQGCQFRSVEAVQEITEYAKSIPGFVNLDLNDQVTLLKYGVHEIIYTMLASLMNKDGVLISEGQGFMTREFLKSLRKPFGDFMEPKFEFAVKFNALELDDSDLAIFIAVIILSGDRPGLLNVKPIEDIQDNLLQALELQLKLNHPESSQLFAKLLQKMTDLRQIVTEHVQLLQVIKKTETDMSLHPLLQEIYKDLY", "sequence (Q9Y618 whole entry)": "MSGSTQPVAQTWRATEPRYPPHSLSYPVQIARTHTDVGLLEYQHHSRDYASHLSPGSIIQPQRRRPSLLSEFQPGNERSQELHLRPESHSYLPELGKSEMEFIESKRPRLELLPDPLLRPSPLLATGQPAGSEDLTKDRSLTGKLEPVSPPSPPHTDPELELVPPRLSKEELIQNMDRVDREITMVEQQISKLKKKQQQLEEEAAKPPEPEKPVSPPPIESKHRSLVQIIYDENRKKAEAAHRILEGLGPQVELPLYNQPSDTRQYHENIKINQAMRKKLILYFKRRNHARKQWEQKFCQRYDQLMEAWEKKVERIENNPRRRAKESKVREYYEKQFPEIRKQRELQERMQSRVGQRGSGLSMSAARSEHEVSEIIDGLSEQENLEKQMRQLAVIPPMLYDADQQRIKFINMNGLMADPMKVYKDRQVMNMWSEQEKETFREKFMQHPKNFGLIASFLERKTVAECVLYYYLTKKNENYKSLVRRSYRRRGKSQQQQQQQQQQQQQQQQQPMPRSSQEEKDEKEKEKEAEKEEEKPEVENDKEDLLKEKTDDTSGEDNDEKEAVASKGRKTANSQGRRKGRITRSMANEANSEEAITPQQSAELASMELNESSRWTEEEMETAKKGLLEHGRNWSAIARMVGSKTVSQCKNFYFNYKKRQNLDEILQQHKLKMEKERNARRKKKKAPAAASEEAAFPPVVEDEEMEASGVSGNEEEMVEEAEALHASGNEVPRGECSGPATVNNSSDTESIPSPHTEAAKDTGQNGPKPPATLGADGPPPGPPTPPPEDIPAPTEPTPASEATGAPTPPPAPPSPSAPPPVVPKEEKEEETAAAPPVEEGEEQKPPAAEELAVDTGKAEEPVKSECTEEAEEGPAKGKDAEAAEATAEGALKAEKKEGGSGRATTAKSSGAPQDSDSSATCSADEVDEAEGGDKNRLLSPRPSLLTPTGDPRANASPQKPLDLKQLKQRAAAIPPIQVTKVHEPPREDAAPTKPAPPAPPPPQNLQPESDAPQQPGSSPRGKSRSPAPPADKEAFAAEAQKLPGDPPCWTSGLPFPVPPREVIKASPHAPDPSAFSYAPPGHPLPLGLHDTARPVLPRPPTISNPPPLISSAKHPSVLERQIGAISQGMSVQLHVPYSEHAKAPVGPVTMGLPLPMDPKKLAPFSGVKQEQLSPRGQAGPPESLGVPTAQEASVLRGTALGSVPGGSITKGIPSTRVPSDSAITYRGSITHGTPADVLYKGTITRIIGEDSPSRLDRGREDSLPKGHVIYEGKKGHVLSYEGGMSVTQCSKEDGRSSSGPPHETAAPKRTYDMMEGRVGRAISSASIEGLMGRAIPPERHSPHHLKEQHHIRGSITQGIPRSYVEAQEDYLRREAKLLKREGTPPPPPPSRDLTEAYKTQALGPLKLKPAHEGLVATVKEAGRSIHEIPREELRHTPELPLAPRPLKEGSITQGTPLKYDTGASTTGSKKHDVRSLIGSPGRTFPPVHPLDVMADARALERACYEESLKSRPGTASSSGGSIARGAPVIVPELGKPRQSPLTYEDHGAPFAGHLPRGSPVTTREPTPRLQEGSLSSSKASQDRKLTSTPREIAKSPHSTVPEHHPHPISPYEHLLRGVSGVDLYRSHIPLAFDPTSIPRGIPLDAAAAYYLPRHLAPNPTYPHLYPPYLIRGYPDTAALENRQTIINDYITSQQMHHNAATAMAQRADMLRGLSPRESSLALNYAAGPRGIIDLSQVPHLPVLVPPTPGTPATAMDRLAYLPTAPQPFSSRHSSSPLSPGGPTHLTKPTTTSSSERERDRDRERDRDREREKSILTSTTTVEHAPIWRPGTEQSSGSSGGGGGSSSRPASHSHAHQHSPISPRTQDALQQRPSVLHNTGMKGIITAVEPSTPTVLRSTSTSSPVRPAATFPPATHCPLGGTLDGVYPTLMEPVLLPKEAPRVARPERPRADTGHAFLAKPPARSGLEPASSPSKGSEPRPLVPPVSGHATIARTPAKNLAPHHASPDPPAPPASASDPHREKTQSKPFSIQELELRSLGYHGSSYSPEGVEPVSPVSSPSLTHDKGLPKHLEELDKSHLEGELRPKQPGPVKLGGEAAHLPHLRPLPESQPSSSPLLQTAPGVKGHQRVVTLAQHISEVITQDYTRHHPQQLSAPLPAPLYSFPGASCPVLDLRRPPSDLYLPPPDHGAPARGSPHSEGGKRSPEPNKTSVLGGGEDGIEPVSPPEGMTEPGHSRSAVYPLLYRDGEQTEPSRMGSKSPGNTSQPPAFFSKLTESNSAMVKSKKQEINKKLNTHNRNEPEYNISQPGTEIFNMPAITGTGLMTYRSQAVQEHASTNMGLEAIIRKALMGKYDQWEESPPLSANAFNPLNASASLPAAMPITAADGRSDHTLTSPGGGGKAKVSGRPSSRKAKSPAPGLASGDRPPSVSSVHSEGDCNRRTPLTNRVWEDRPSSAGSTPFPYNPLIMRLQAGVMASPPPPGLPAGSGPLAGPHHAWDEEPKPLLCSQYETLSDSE", "assay": "Counterscreen for NR2E3 inverse agonists: TR-FRET-based biochemical high throughput dose response assay to identify inverse agonists of the interaction between peroxisome proliferator-activated receptor gamma (PPARg) and nuclear receptor co-repressor 2 (NCOR2).", "format": "functional"}, "[14]": {"molecular_target": "Photoreceptor-specific nuclear receptor (Homo sapiens, UniProt Q9Y5X4)", "sequence (Q9Y5X4 whole entry)": "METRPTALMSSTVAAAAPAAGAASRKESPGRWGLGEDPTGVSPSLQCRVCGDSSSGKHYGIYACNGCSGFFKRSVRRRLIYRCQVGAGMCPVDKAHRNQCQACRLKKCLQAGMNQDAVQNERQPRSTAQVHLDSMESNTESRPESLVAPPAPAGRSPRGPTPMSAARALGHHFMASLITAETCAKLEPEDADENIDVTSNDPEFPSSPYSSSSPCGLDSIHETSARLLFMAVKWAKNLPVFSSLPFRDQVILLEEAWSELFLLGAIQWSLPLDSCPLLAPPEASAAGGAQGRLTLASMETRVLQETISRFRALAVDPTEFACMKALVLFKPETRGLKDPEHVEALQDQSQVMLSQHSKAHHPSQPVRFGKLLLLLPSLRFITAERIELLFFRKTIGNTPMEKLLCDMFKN", "assay": "NR2E3 inverse agonists, dose response, biochemical, TR-FRET (AID 463256)", "format": "functional"}, "[15]": {"molecular_target": "T2, Endoribonuclease toxin MazF (Escherichia coli K-12, UniProt P0AE70)", "T2 sequence (P0AE70 whole entry)": "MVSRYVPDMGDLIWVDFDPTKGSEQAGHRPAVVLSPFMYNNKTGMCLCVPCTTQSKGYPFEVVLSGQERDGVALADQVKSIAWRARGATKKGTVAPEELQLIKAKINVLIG", "assay": "MazF endoribonuclease activators, SAR follow-up, biochemical, fluorescence, single-stranded RNA substrate (AID 588603)", "format": "functional"}, "[16]": {"molecular_target": "T2, Endoribonuclease toxin MazF", "assay": "MazF toxin RNase activators, dose response, biochemical, fluorescence, single-stranded RNA substrate, uHTS hits (AID 588481)", "format": "functional"}, "MEF": {"test_system": "MEF", "assay": "SAR analysis of small molecule cytotoxicity of MazEF TA System activators in embryonic fibroblast (MEF) cells. [Related pubchem assays (depositor defined):AID504720, AID504743]", "format": "functional", "conditions": "Mus musculus"}, "[17]": {"molecular_target": "T2, Endoribonuclease toxin MazF", "assay": "SAR analysis of small molecule activators of the MazEF TA System via a fluorescence-based single-stranded RNase assay counterscreen. [Related pubchem assays (depositor defined):AID504720, AID504743]", "format": "functional"}, "[18]": {"molecular_target": "T2, Endoribonuclease toxin MazF", "assay": "fluorescent RNA oligo signal without MazF, dose response, counter-screen for MazEF activator project, biochemical, fluorescence, single-stranded RNase substrate (AID 588502)", "format": "functional"}, "Cytochrome P450 3A4": {"molecular_target": "Cytochrome P450 3A4 (Homo sapiens, UniProt P08684)", "sequence (P08684 whole entry)": "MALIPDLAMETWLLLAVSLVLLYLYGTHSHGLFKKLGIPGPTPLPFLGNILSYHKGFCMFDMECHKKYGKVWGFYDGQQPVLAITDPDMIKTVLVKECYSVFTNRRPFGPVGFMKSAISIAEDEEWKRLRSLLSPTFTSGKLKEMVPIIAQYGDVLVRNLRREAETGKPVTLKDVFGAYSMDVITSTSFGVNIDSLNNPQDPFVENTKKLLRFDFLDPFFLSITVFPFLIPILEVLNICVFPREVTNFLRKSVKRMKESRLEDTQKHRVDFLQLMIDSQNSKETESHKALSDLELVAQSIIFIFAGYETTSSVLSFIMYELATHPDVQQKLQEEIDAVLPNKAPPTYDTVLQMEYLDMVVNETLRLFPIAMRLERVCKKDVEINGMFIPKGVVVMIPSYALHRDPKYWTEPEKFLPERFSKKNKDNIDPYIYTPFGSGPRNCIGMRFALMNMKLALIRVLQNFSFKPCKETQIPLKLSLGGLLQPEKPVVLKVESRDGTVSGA"}, "Cytochrome P450 2C9": {"molecular_target": "Cytochrome P450 2C9 (Homo sapiens, UniProt P11712)", "sequence (P11712 whole entry)": "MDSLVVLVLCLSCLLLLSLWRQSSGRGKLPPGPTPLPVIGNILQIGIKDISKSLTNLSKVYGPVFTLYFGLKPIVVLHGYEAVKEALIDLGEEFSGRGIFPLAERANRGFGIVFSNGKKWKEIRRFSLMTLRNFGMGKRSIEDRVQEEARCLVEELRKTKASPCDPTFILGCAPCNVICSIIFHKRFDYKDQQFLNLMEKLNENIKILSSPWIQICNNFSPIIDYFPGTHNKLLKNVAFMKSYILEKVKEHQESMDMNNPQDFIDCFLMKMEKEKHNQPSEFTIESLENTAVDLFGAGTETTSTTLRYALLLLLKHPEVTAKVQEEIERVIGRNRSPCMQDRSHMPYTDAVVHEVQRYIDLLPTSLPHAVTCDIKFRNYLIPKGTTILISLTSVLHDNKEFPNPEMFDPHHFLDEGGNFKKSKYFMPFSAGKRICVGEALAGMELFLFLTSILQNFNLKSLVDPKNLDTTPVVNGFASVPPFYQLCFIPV"}},
  "note": "Active and inactive are the calls of the source.",
  "data": [
    {"smiles": "Oc1cc(O)c2sc(Nc3ccc(Cl)c(F)c3)nc2n1", "values": [
      {"measurement": "EC50", "setting": "Transthyretin", "value": "> 167 µM (inactive)"}
    ]},
    {"smiles": "COc1cc2c(-c3ccc4[nH]ccc4c3)c(-c3ccc(C#N)cc3)oc(=O)c2cc1OC", "values": [
      {"measurement": "IC50", "setting": "[1]", "value": "> 100 µM (active)"},
      {"measurement": "CC50", "setting": "[2]", "value": "> 40 µM (active)"}
    ]},
    {"smiles": "CC1(C)Cc2c(C#N)c(N3CCN(C(=O)c4ccco4)CC3)nc(-c3ccco3)c2CS1", "values": [
      {"measurement": "IC50", "setting": "Genome polyprotein", "value": "> 49.8 µM (not active)"}
    ]},
    {"smiles": "O=c1c2c3c(sc2nc2n1CCC2)CCC3", "values": [
      {"measurement": "IC50", "setting": "[3]", "value": "> 100 µM (not active)"}
    ]},
    {"smiles": "Cn1cnnc1SC/C(O)=C(\\C#N)c1nc2ccccc2[nH]1", "values": [
      {"measurement": "IC50", "setting": "[4]", "value": "> 100 µM (active)"}
    ]},
    {"smiles": "CCN1CCN(C(=O)c2ccc(C(F)(F)F)cc2)CC1", "values": [
      {"measurement": "AC50", "setting": "[5]", "value": "> 30 µM (inactive)"}
    ]},
    {"smiles": "c1ccc2c(CN3CCCCCC3)c[nH]c2c1", "values": [
      {"measurement": "IC50", "setting": "[6]", "value": "0.702 µM (active)"},
      {"measurement": "AC50", "setting": "INS1", "value": "4.09 µM (active)"}
    ]},
    {"smiles": "O=C1/C(=C/c2ccccc2)SC(=S)N1CC(=O)N1CCCCC1c1cccnc1", "note": "(stereo not given)", "values": [
      {"measurement": "IC50", "setting": "Vero [7]", "value": "> 25 µM (active)"},
      {"measurement": "CC50", "setting": "Vero [8]", "value": "14.6 µM (active)"},
      {"measurement": "AC50", "setting": "Paired box protein Pax-8", "value": "4.37 µM (active)"},
      {"measurement": "AC50", "setting": "[9]", "value": "70.7 µM (active)"},
      {"measurement": "AC50", "setting": "[10]", "value": "61.9 µM (active)"},
      {"measurement": "AC50", "setting": "[11]", "value": "42.1 µM (active)"}
    ]},
    {"smiles": "Cc1ccc(Cn2cccc(-c3nc4ccccc4s3)c2=O)cc1", "values": [
      {"measurement": "EC50", "setting": "[12]", "value": "4.14 µM (active)"}
    ]},
    {"smiles": "O=C(CSc1nc(-c2ccccc2)nc2ccccc12)Nc1nccs1", "values": [
      {"measurement": "IC50", "setting": "[13]", "value": "> 39.8 µM (not active)"},
      {"measurement": "IC50", "setting": "[14]", "value": "5.93 µM (active)"},
      {"measurement": "EC50", "setting": "[15]", "value": "29.1 µM (inactive)"},
      {"measurement": "EC50", "setting": "[16]", "value": "20.7 µM (inactive)"},
      {"measurement": "CC50", "setting": "MEF", "value": "29.7 µM (active)"},
      {"measurement": "EC50", "setting": "[17]", "value": "> 99 µM (inactive)"},
      {"measurement": "EC50", "setting": "[18]", "value": "45 µM (inactive)"},
      {"measurement": "AC50", "setting": "Cytochrome P450 3A4", "value": "1 µM (inconclusive)"},
      {"measurement": "AC50", "setting": "Cytochrome P450 2C9", "value": "0.631 µM (inconclusive)"}
    ]}
  ]
}
